# Measured values reported in US8247211B2, “Glycopeptide antibiotics” (American Cyanamid Company, priority 2001, dated 2012).
# Key:
# Experiment in all cases: In vitro antibacterial evaluation: minimum inhibitory concentration (MIC), broth dilution method
# Assay type in all cases: cell-based
# Staphylococcus sp. = tested on: Staphylococcus sp.
# Procedure: (§1) The minimum inhibitory concentration (MIC), the lowest concentration of the antibiotic which inhibits growth of the test organism, is determined by the broth dilution method using Muller-Hinton II […] (Baltimore Biological Laboratories) following the recommendations of the National Committee for Clinical Laboratory Standards [Methods for dilution antimicrobial susceptibility tests for bacteria that grow aerobically, approved standard M7-A2, National Committee for Clinical Laboratory Standards, Villanova, Pa].
# (§2) An inoculum level of 5×10^5 CFU/mL, and a range of antibiotic concentrations (64-0.06 μg/mL) is used. […] The test organisms include a spectrum of Gram-positive bacteria comprised of Staphylococcus sp., Streptococcus sp. and Enterococcus sp. These organisms include recent clinical isolates that are resistant to methicillin, penicillin and/or vancomycin.
# Streptococcus sp. = tested on: Streptococcus sp.
# Procedure: as §1, §2
# Escherichia coli = tested on: Escherichia coli
# Procedure: as §1, §2
# Enterococcus sp. = tested on: Enterococcus sp.
# Procedure: as §1, §2
# [1] = broth dilution, 5×10^5 CFU/mL, 18 hours at 35° C.
# [2] = strain ATCC 29213, broth dilution, 18 hours at 35° C.
# [3] = strain GC 1131, broth dilution, 18 hours at 35° C.
# [4] = strain GC 3051, broth dilution, 18 hours at 35° C.
# [5] = strain GC 3053, broth dilution, 18 hours at 35° C.
# [6] = strain GC 4541, broth dilution, 18 hours at 35° C.
# [7] = strain GC 4542, broth dilution, 18 hours at 35° C.
# [8] = strain GC 4543, broth dilution, 18 hours at 35° C.
# [9] = strain GC 4544, broth dilution, 18 hours at 35° C.
# [10] = strain GC 4545, broth dilution, 18 hours at 35° C.
# [11] = strain GC 4546, broth dilution, 18 hours at 35° C.
# [12] = strain GC 4547, broth dilution, 18 hours at 35° C.
# [13] = strain GC 4548, broth dilution, 18 hours at 35° C.
# [14] = strain GC 4549, broth dilution, 18 hours at 35° C.
# [15] = strain GC 4551, broth dilution, 18 hours at 35° C.
# [16] = strain GC 6257, broth dilution, 18 hours at 35° C.
# [17] = 5×10^5 CFU/mL, 18 hours at 35° C.
compound,measurement,setting,value
"CC(c1ccccc1)C1NC(=O)CNC(=O)C(CO)NC(=O)C(C(O)C2CNC(=N)N2C2OC(CO)C(O)C(O)C2O)NC(=O)C(C(O)C2CNC(=N)N2)NC(=O)C(Cc2ccc(OC3OC(CO)C(OC4OC5COC(c6cccc(O)c6)OC5C(O)C4O)C(O)C3O)cc2)NC1=O (stereo not drawn) [Example 136, Cyclo[glycyl-β-methylphenylalanyl-O-[4-O-[4,6-O-(3-hydroxybenzylidene)hexopyranosyl]-hexopyranosyl]tyrosyl-3-(2-iminoimidazolidin-4-yl)seryl-3-(3-hexopyranosyl-2-iminoimidazoliclin-4-yl)serylseryl]]",MIC Coagulase Negative Staphylococcus (GC 4547),Staphylococcus sp.; [1],8 µg/mL
same,MIC Coagulase Negative Staphylococcus (GC 4548),Staphylococcus sp.; [1],8 µg/mL
same,MIC Coagulase Negative Staphylococcus (GC 4549),Staphylococcus sp.; [1],4 µg/mL
same,MIC Coagulase Negative Staphylococcus (GC 4551),Staphylococcus sp.; [1],32 µg/mL
same,MIC Coagulase Negative Staphylococcus (GC 6257),Staphylococcus sp.; [1],4 µg/mL
same,MIC Staphylococcus aureus-SMITH (GC 4543),Staphylococcus sp.; [1],16 µg/mL
same,MIC Staphylococcus haemolyticus (GC 4546),Staphylococcus sp.; [1],16 µg/mL
same,MIC Staphylococcus aureus (ATCC 29213),Staphylococcus sp.; strain ATCC 29213,16 µg/mL
same,MIC Staphylococcus aureus (ATCC 29213),Staphylococcus sp.; [2],16 µg/mL
same,MIC Staphylococcus aureus (GC 1131),Staphylococcus sp.; strain GC 1131,16 µg/mL
same,MIC Staphylococcus aureus (GC 1131),Staphylococcus sp.; [3],16 µg/mL
same,MIC Staphylococcus aureus (GC 3051),Staphylococcus sp.; strain GC 3051,16 µg/mL
same,MIC Staphylococcus aureus (GC 3051),Staphylococcus sp.; [4],16 µg/mL
same,MIC Staphylococcus aureus (GC 3053),Staphylococcus sp.; strain GC 3053,32 µg/mL
same,MIC Staphylococcus aureus (GC 3053),Staphylococcus sp.; [5],32 µg/mL
same,MIC Staphylococcus aureus (GC 4541),Staphylococcus sp.; strain GC 4541,8 µg/mL
same,MIC Staphylococcus aureus (GC 4541),Staphylococcus sp.; [6],8 µg/mL
same,MIC Staphylococcus aureus (GC 4542),Staphylococcus sp.; strain GC 4542,16 µg/mL
same,MIC Staphylococcus aureus (GC 4542),Staphylococcus sp.; [7],16 µg/mL
same,MIC Staphylococcus aureus-SMITH (GC 4543),Staphylococcus sp.; [8],16 µg/mL
same,MIC Staphylococcus aureus (GC 4544),Staphylococcus sp.; strain GC 4544,16 µg/mL
same,MIC Staphylococcus aureus (GC 4544),Staphylococcus sp.; [9],16 µg/mL
same,MIC Staphylococcus aureus (GC 4545),Staphylococcus sp.; strain GC 4545,16 µg/mL
same,MIC Staphylococcus aureus (GC 4545),Staphylococcus sp.; [10],16 µg/mL
same,MIC Staphylococcus haemolyticus (GC 4546),Staphylococcus sp.; [11],16 µg/mL
same,MIC Coagulase Negative Staphylococcus (GC 4547),Staphylococcus sp.; [12],8 µg/mL
same,MIC Coagulase Negative Staphylococcus (GC 4548),Staphylococcus sp.; [13],8 µg/mL
same,MIC Coagulase Negative Staphylococcus (GC 4549),Staphylococcus sp.; [14],4 µg/mL
same,MIC Coagulase Negative Staphylococcus (GC 4551),Staphylococcus sp.; [15],32 µg/mL
same,MIC Coagulase Negative Staphylococcus (GC 6257),Staphylococcus sp.; [16],4 µg/mL
same,MIC Streptococcus agalactiae (GC 4564),Streptococcus sp.; [1],8 µg/mL
same,MIC Streptococcus pneumoniae (GC 1894),Streptococcus sp.; [1],1 µg/mL
same,MIC Streptococcus pneumoniae (GC 4565),Streptococcus sp.; [1],4 µg/mL
same,MIC Streptococcus pneumonine (ATCC 6301),Streptococcus sp.; [1],2 µg/mL
same,MIC Streptococcus pyogenes (GC 4563),Streptococcus sp.; [1],8 µg/mL
same,MIC Escherichia coli (ATCC 25922),Escherichia coli; [17],>64 µg/mL
same,MIC Escherichia coli (GC 4559),Escherichia coli; [17],>64 µg/mL
same,MIC Escherichia coli (GC 4560),Escherichia coli; [17],4 µg/mL
same,MIC Enterococccus avium (GC 4558),Enterococcus sp.; [1],64 µg/mL
same,MIC Enterococccus faecalis (ATCC 29212),Enterococcus sp.; [1],>64 µg/mL
same,MIC Enterococccus faecalis (GC 2691),Enterococcus sp.; [1],>64 µg/mL
same,MIC Enterococccus faecalis (GC 3059),Enterococcus sp.; [1],>64 µg/mL
same,MIC Enterococccus faecalis (GC 4552),Enterococcus sp.; [1],>64 µg/mL
same,MIC Enterococccus faecalis (GC 4553),Enterococcus sp.; [1],>64 µg/mL
same,MIC Enterococccus faecalis (GC 4554),Enterococcus sp.; [1],>64 µg/mL
same,MIC Enterococccus faecalis (GC 6189),Enterococcus sp.; [1],64 µg/mL
same,MIC Enterococccus faecium (GC 2243),Enterococcus sp.; [1],>64 µg/mL
same,MIC Enterococccus faecium (GC 4556),Enterococcus sp.; [1],64 µg/mL
same,MIC Enterococccus faecium (GC 4557),Enterococcus sp.; [1],8 µg/mL
same,MIC Enterococcus faecalis (GC 2242),Enterococcus sp.; [1],64 µg/mL
"CC(c1ccccc1)C1NC(=O)CNC(=O)C(CO)NC(=O)C(C(O)C2CNC(=N)N2C2OC(CO)C(O)C(O)C2O)NC(=O)C(C(O)C2CNC(=N)N2)NC(=O)C(Cc2ccc(OC3OC(CO)C(OC4OC5COC(c6cccc(Cl)c6)OC5C(O)C4O)C(O)C3O)cc2)NC1=O (stereo not drawn) [Example 138, Cyclo[glycyl-β-methylphenylalanyl-O-[4-O-[4,6-O-(3-chlorobenzylidene)hexopyranosyl]-hexopyranosyl]tyrosyl-3-(2-iminoimidazolidin-4-yl)seryl-3-(3-hexopyranosyl-2-iminoimidazolidin-4-yl)serylseryl]]",MIC Coagulase Negative Staphylococcus (GC 4547),Staphylococcus sp.; [1],4 µg/mL
same,MIC Coagulase Negative Staphylococcus (GC 4548),Staphylococcus sp.; [1],1 µg/mL
same,MIC Coagulase Negative Staphylococcus (GC 4549),Staphylococcus sp.; [1],1 µg/mL
same,MIC Coagulase Negative Staphylococcus (GC 4551),Staphylococcus sp.; [1],2 µg/mL
same,MIC Coagulase Negative Staphylococcus (GC 6257),Staphylococcus sp.; [1],2 µg/mL
same,MIC Staphylococcus aureus (ATCC 29213),Staphylococcus sp.; [1],2 µg/mL
same,MIC Staphylococcus aureus (GC 1131),Staphylococcus sp.; [1],2 µg/mL
same,MIC Staphylococcus aureus (GC 3051),Staphylococcus sp.; [1],2 µg/mL
same,MIC Staphylococcus aureus (GC 3053),Staphylococcus sp.; [1],2 µg/mL
same,MIC Staphylococcus aureus (GC 4541),Staphylococcus sp.; [1],2 µg/mL
same,MIC Staphylococcus aureus (GC 4542),Staphylococcus sp.; [1],2 µg/mL
same,MIC Staphylococcus aureus (GC 4544),Staphylococcus sp.; [1],2 µg/mL
same,MIC Staphylococcus aureus (GC 4545),Staphylococcus sp.; [1],2 µg/mL
same,MIC Staphylococcus aureus-SMITH (GC 4543),Staphylococcus sp.; [1],1 µg/mL
same,MIC Staphylococcus haemolyticus (GC 4546),Staphylococcus sp.; [1],2 µg/mL
same,MIC Staphylococcus aureus (ATCC 29213),Staphylococcus sp.; [2],2 µg/mL
same,MIC Staphylococcus aureus (GC 1131),Staphylococcus sp.; [3],2 µg/mL
same,MIC Staphylococcus aureus (GC 3051),Staphylococcus sp.; [4],2 µg/mL
same,MIC Staphylococcus aureus (GC 3053),Staphylococcus sp.; [5],2 µg/mL
same,MIC Staphylococcus aureus (GC 4541),Staphylococcus sp.; [6],2 µg/mL
same,MIC Staphylococcus aureus (GC 4542),Staphylococcus sp.; [7],2 µg/mL
same,MIC Staphylococcus aureus-SMITH (GC 4543),Staphylococcus sp.; [8],1 µg/mL
same,MIC Staphylococcus aureus (GC 4544),Staphylococcus sp.; [9],2 µg/mL
same,MIC Staphylococcus aureus (GC 4545),Staphylococcus sp.; [10],2 µg/mL
same,MIC Staphylococcus haemolyticus (GC 4546),Staphylococcus sp.; [11],2 µg/mL
same,MIC Coagulase Negative Staphylococcus (GC 4547),Staphylococcus sp.; [12],4 µg/mL
same,MIC Coagulase Negative Staphylococcus (GC 4548),Staphylococcus sp.; [13],1 µg/mL
same,MIC Coagulase Negative Staphylococcus (GC 4549),Staphylococcus sp.; [14],1 µg/mL
same,MIC Coagulase Negative Staphylococcus (GC 4551),Staphylococcus sp.; [15],2 µg/mL
same,MIC Coagulase Negative Staphylococcus (GC 6257),Staphylococcus sp.; [16],2 µg/mL
same,MIC Streptococcus pneumoniae (ATCC 6301),Streptococcus sp.; strain ATCC 6301,<0.06 µg/mL
same,MIC Streptococcus pneumoniae (GC 1894),Streptococcus sp.; strain GC 1894,<0.06 µg/mL
same,MIC Streptococcus pyogenes (GC 4563),Streptococcus sp.; strain GC 4563,0.25 µg/mL
same,MIC Streptococcus agalactiae (GC 4564),Streptococcus sp.; strain GC 4564,0.12 µg/mL
same,MIC Streptococcus pneumoniae (GC 4565),Streptococcus sp.; strain GC 4565,<0.06 µg/mL
same,MIC Escherichia coli (ATCC 25922),Escherichia coli; strain ATCC 25922,64 µg/mL
same,MIC Escherichia coli (GC 4559),Escherichia coli; strain GC 4559,64 µg/mL
same,MIC Escherichi coli (GC 4560),Escherichia coli; strain GC 4560,0.5 µg/mL
same,MIC Enterococcus faecalis (ATCC 29212),Enterococcus sp.; strain ATCC 29212,4 µg/mL
same,MIC Enterococcus faecalis (GC 2242),Enterococcus sp.; strain GC 2242,4 µg/mL
same,MIC Enterococcus faecium (GC 2243),Enterococcus sp.; strain GC 2243,4 µg/mL
same,MIC Enterococcus faecalis (GC 2691),Enterococcus sp.; strain GC 2691,8 µg/mL
same,MIC Enterococcus faecalis (GC 3059),Enterococcus sp.; strain GC 3059,4 µg/mL
same,MIC Enterococcus faecalis (GC 4552),Enterococcus sp.; strain GC 4552,4 µg/mL
same,MIC Enterococcus faecalis (GC 4553),Enterococcus sp.; strain GC 4553,8 µg/mL
same,MIC Enterococcus faecalis (GC 4554),Enterococcus sp.; strain GC 4554,8 µg/mL
same,MIC Enterococcus faecium (GC 4556),Enterococcus sp.; strain GC 4556,8 µg/mL
same,MIC Enterococcus faecium (GC 4557),Enterococcus sp.; strain GC 4557,2 µg/mL
same,MIC Enterococcus avium (GC 4558),Enterococcus sp.; strain GC 4558,4 µg/mL
same,MIC Enterococcus faecalis (GC 6189),Enterococcus sp.; strain GC 6189,4 µg/mL
